# Source: patent US20120184765A1, “Process for preparing alkyl phosphates” (LANXESS DEUTSCHLAND GMBH, priority 2011, published 2012)
# Test: Solubility of tetraalkyl bisphosphates in water (separating funnel test)
# Format: physicochemical
# Conditions: for water solubility (phase separation observed): 50.0 g tetraalkyl bisphosphate + 50.0 g fully demineralized water, shaken, left to stand 1 hour, residue of aqueous phase / weight of aqueous phase; for solubility / miscibility in water (in words): conclusion from the phase separation experiments; for phase separation in further experiments: different weight ratios of tetraalkyl bisphosphate and water
# Procedure: A separating funnel was charged with 50.0 g of tetraalkyl bisphosphate and 50.0 g of fully demineralized water, and was shaken vigorously and then left to stand for 1 hour. If phase separation became apparent, the lower, aqueous phase was carefully separated off and weighed (mw). The aqueous phase was concentrated to constant weight under reduced pressure on a rotary evaporator, and the residue was likewise weighed (mR).
water solubility (phase separation observed),solubility / miscibility in water (in words),phase separation in further experiments,Molecule
no phase separation,fully water-soluble,no phase separation,tetramethyldiethylene glycol bisphosphate
no phase separation,fully water-soluble,no phase separation,"CCOP(=O)(OCC)OCCOCCOP(=O)(OCC)OCC [Tetraethyldiethylene glycol bisphosphate, tetraethyldiethylene glycol bisphosphate]"
